Legend:
[1] = Counterscreen Huh7-CMV-Luc; assay type: cell-based; settings: human
Text: (§1) Counterscreen cell lines included a Huh-7 hepatoma cell line containing a human cytomegalovirus major immediate-early promoter-Luc construct (Huh7-CMV-Luc) and an MT4 T-cell line containing a long terminal repeat-Luc reporter (MT4-LTR-Luc).

[2] = test system: HCV type 1b replicon (Huh-7 luc/neo cells); test: HCV replicon assay, stable transfection (Huh-Luc, luciferase); assay type: cell-based; settings: Hepatitis C virus, Huh-7, 72 h, three days incubation, average of all tests
Text: The compounds of formula (I) were examined for inhibitory activity in the HCV replicon. This cellular assay is based on a bicistronic expression construct, as described by Lohmann et al. (Science (1999) 285: 110-113; Journal of Virology (2003) 77: 3007-3019) with modifications described by Krieger et al. (Journal of Virology (2001) 75: 4614-4624), and Lohmann et al. (Journal of Virology (2003) 77: 3007-3019) for genotype 1b and by Yi et al. (Journal of Virology (2004) 78: 7904-7915) for genotype 1a, in a multi-target screening strategy.
The method was as follows. The assay utilized the stably transfected cell line Huh-7 luc/neo (hereafter referred to as Huh-Luc). This cell line harbors an RNA encoding a bicistronic expression construct comprising the wild type NS3-NS5B regions of HCV type 1b translated from an Internal Ribosome Entry Site (IRES) from encephalomyocarditis virus (EMCV), preceded by a reporter portion (FfL-luciferase), and a selectable marker portion (neoR, neomycine phosphotransferase). The construct is flanked by 5′ and 3′ NTRs (non-translated regions) from HCV type 1b. Continued culture of the replicon cells in the presence of G418 (neoR) is dependent on the replication of the HCV RNA. The stably transfected replicon cells that replicate HCV RNA autonomously and to high levels, encoding inter alia luciferase, were used for screening the antiviral compounds.
The replicon cells were plated in 384 well plates in the presence of the test and control compounds which were added in various concentrations. Following an incubation of three days, HCV replication was measured by assaying luciferase activity (using standard luciferase assay substrates and reagents and a Perkin Elmer ViewLux™ ultraHTS microplate imager). Replicon cells in the control cultures have high luciferase expression in the absence of any inhibitor. The inhibitory activity of the compound was monitored on the Huh-Luc cells, enabling a dose-response curve for each test compound. EC50 values were then calculated, which represent the amount of compound required to decrease the level of detected luciferase activity by 50%, or more specifically, to reduce the ability of the genetically linked HCV replicon RNA to replicate.
Where a compound of formula (I) was tested more than once in the replicon assay, the average of all test results is given in this Table 2.

[3] = test system: HCV genotype 1b Con1 replicon (Huh-7 lunet cells); test: HCV replicon assay, transient transfection, genotype 1b; assay type: cell-based; settings: Hepatitis C virus, 48 h, genotype 1b Con1, two days incubation, luciferase
Text: (§2) In a transient set-up, a Huh-7 lunet hepatoma cell line was transiently transfected with an autonomously replicating RNA encoding a bi-cistronic expression construct. This construct comprises a firefly luciferase reporter gene preceding the NS3-NS5B subgenomic region of HCV (genotype 1a H77 or 1b Con1). Translation of the HCV subgenomic region is mediated by an internal ribosome entry site of encephalomyocarditis virus. The construct is furthermore flanked by 5′ and 3′ untranslated regions of HCV (genotype 1a H77 or 1b Con 1, respectively), which allow for replication of the RNA.
(§3) Cells were plated in 384 well plates in the presence of test and control compounds, which were added in various concentrations. Following an incubation of two days, replication of the HCV subgenomic replicon RNA was measured by assaying luciferase activity (using standard luciferase assay substrates and reagents and a Perkin Elmer ViewLux™ ultraHTS microplate imager). HCV subgenomic replicon containing cells in the control cultures have high luciferase expression in the absence of any inhibitor. The inhibitory activity of the compound was monitored, enabling a dose-response curve for each test compound. EC50 values were then calculated, which represent the amount of compound required to decrease the level of detected luciferase activity by 50%, or more specifically, to reduce the ability of the genetically linked HCV subgenomic RNA to replicate.
(§4) Where a compound of formula (I) was tested more than once in the transient replicon assay, the average of all test results is given in Table 3.

[4] = Counterscreen MT4-LTR-Luc; assay type: cell-based; settings: human
Text: as §1

[5] = test system: HCV genotype 1a H77 replicon (Huh-7 lunet cells); test: HCV replicon assay, transient transfection, genotype 1a; assay type: cell-based; settings: Hepatitis C virus, 48 h, genotype 1a H77, two days incubation, luciferase
Text: as §2, §3, §4

[6] = test system: HCV genotype 1b replicon NS5A Y93H; test: Transient HCV 1b replicon, NS5A mutant Y93H; assay type: cell-based; settings: Hepatitis C virus, read-out: EC50 Y93H
Text: as §2
(§5) In addition to the wild-type constructs, site-directed mutations were introduced into the transient HCV genotype 1b replicon in the gene encoding for the non-structural protein 5A (NS5A). More precisely, amino acid residues 28, 30, 31 and 93 in NS5A were independently altered.
as §3

[7] = test system: HCV genotype 1b replicon NS5A R30H; test: Transient HCV 1b replicon, NS5A mutant R30H; assay type: cell-based; settings: Hepatitis C virus, read-out: EC50 R30H
Text: as §2, §5, §3

[8] = test system: HCV genotype 1b replicon NS5A Y93C; test: Transient HCV 1b replicon, NS5A mutant Y93C; assay type: cell-based; settings: Hepatitis C virus, read-out: EC50 Y93C
Text: as §2, §5, §3

[9] = test system: HCV genotype 1b replicon NS5A L31V; test: Transient HCV 1b replicon, NS5A mutant L31V; assay type: cell-based; settings: Hepatitis C virus, read-out: EC50 L31V
Text: as §2, §5, §3

[10] = test system: HCV genotype 1b replicon NS5A L28T; test: Transient HCV 1b replicon, NS5A mutant L28T; assay type: cell-based; settings: Hepatitis C virus, read-out: EC50 L28T
Text: as §2, §5, §3

[11] = test system: HCV genotype 1b replicon NS5A L31F; test: Transient HCV 1b replicon, NS5A mutant L31F; assay type: cell-based; settings: Hepatitis C virus, read-out: EC50 L31F
Text: as §2, §5, §3

[12] = test system: HCV genotype 1b replicon NS5A L31M; test: Transient HCV 1b replicon, NS5A mutant L31M; assay type: cell-based; settings: Hepatitis C virus, read-out: EC50 L31M
Text: as §2, §5, §3

[13] = Pharmacokinetic analysis after single oral administration, liver concentration; assay type: in vivo; settings: male Sprague-Dawley rats, 10 mg/kg oral, solution in PEG400
Experimental: Compounds were dosed orally as a solution in PEG400 to male Sprague-Dawley rats at a dose level of 10 mg/kg. At serial time points, after dosing, the animals were sacrificed and liver samples collected. All samples were analyzed using a qualified research LC-MS/MS method to determine the concentration of the tested compounds in liver. Non-compartmental analysis using the lin/log trapezoidal rule was performed using WinNonlin™ Professional (Version 5.2.1).

| SMILES | CC50 [1] | EC50 [2] | EC50 [3] | CC50 [4] | EC50 [5] | EC50 [6] | EC50 [7] | EC50 [8] | EC50 [9] | EC50 [10] | EC50 [11] | EC50 [12] | Liver AUC [13] |
| --- | --- | --- | --- | --- | --- | --- | --- | --- | --- | --- | --- | --- | --- |
| COC(=O)NC(C(=O)N1CCC[C@H]1c1ncc(-c2ccc3cc(-c4ccc5nc([C@@H]6CCCN6C(=O)C(NC(=O)OC)C6CCOCC6)[nH]c5c4)ccc3c2)[nH]1)C1CCOCC1 (mixture of isomers) [Compound 12] | > 984 nM | 0.08 nM | 0.11 nM | > 984 nM | 0.268 nM | 0.275 nM | – | – | – | – | – | – | – |
| COC(=O)NC(C(=O)N1CCC[C@H]1c1ncc(-c2ccc3cc(-c4ccc5nc([C@@H]6CCCN6C(=O)C(NC(=O)OC)c6ccccc6)[nH]c5c4)ccc3c2)[nH]1)c1ccccc1 (mixture of isomers) [Compound 14] | > 984 nM | 0.004 nM | 0.004 nM | > 984 nM | 0.836 nM | 0.093 nM | – | – | – | – | – | – | – |
| COC(=O)N[C@H](C(=O)N1CCC[C@H]1c1ncc(-c2ccc(-c3ccc4nc([C@@H]5CCCN5C(=O)[C@@H](NC(=O)OC)C(C)C)[nH]c4c3)cc2)[nH]1)C(C)C [Compound 1] | – | 0.058 nM | 0.058 nM | > 984 nM | – | 1.33 nM | 0.6 nM | 0.076 nM | 1.06 nM | 4.12 nM | 0.775 nM | – | – |
| COC(=O)N[C@H](C(=O)N1CCC[C@H]1c1ncc(-c2ccc(-c3ccc4nc([C@@H]5CCCN5C(=O)[C@@H](NC(=O)OC)[C@@H](C)OC)[nH]c4c3)cc2)[nH]1)[C@@H](C)OC [Compound 2] | > 984 nM | 0.54 nM | 0.909 nM | > 984 nM | – | 2.88 nM | 2.69 nM | 0.655 nM | 1.38 nM | 9.05 nM | 1.81 nM | – | – |
| COC(=O)N[C@H](C(=O)N1CCC[C@H]1c1ncc(-c2ccc3cc(-c4ccc5nc([C@@H]6CCCN6C(=O)[C@@H](NC(=O)OC)C(C)C)[nH]c5c4)ccc3c2)[nH]1)C(C)C [Compound 3] | 7640 nM | 0.007 nM | 0.008 nM | 5820 nM | 0.051 nM | 0.47 nM | 0.072 nM | 0.012 nM | 0.504 nM | 0.229 nM | 0.032 nM | 0.184 nM | 23157 ng·h/g |
| COC(=O)N[C@H](C(=O)N1CCC[C@H]1c1ncc(-c2ccc3cc(-c4ccc5nc([C@@H]6CCCN6C(=O)[C@@H](NC(=O)OC)[C@@H](C)OC)[nH]c5c4)ccc3c2)[nH]1)[C@@H](C)OC [Compound 4] | > 984 nM | 0.012 nM | 0.016 nM | > 984 nM | 0.033 nM | 0.034 nM | 0.056 nM | 0.013 nM | 0.048 nM | 0.052 nM | 0.02 nM | 0.052 nM | 1539 ng·h/g |
| COC(=O)N[C@H](C(=O)N1CCC[C@H]1c1ncc(-c2ccc3cc(-c4ccc5nc([C@@H]6CCCN6C(=O)[C@@H](NC(=O)OC)C6CC6)[nH]c5c4)ccc3c2)[nH]1)C1CC1 [Compound 5] | > 984 nM | 0.039 nM | 0.058 nM | > 984 nM | – | 10.8 nM | – | – | – | – | – | – | – |
| COC(=O)N[C@H](C(=O)N1CCC[C@H]1c1ncc(-c2ccc3cc(-c4ccc5nc([C@@H]6CCCN6C(=O)[C@@H](NC(=O)OC)[C@@H](C)O)[nH]c5c4)ccc3c2)[nH]1)[C@@H](C)O [Compound 6] | > 984 nM | 0.132 nM | 0.142 nM | > 984 nM | 0.181 nM | 1.01 nM | – | – | – | – | – | – | – |
| COC(=O)N[C@@H](CC(C)C)C(=O)N1CCC[C@H]1c1ncc(-c2ccc3cc(-c4ccc5nc([C@@H]6CCCN6C(=O)[C@H](CC(C)C)NC(=O)OC)[nH]c5c4)ccc3c2)[nH]1 [Compound 7] | > 984 nM | 0.005 nM | 0.003 nM | > 984 nM | 0.989 nM | 3.41 nM | – | – | – | – | – | – | – |
| COCC[C@H](NC(=O)OC)C(=O)N1CCC[C@H]1c1ncc(-c2ccc3cc(-c4ccc5nc([C@@H]6CCCN6C(=O)[C@H](CCOC)NC(=O)OC)[nH]c5c4)ccc3c2)[nH]1 [Compound 10] | > 984 nM | 0.029 nM | 0.057 nM | > 984 nM | – | 1.03 nM | – | – | – | – | – | – | – |
| COC(=O)N[C@H](C(=O)N1CCC[C@H]1c1ncc(-c2ccc3cc(-c4ccc5nc([C@@H]6CCCN6C(=O)[C@@H](NC(=O)OC)C6CCCC6)[nH]c5c4)ccc3c2)[nH]1)C1CCCC1 [Compound 15] | > 984 nM | 0.003 nM | 0.003 nM | > 984 nM | 0.277 nM | 1.19 nM | – | – | – | – | – | – | – |
| CC[C@@H](C)[C@H](NC(=O)OC)C(=O)N1CCC[C@H]1c1ncc(-c2ccc3cc(-c4ccc5nc([C@@H]6CCCN6C(=O)[C@@H](NC(=O)OC)[C@H](C)CC)[nH]c5c4)ccc3c2)[nH]1 [Compound 19] | > 984 nM | 0.003 nM | 0.002 nM | > 984 nM | 0.471 nM | 5.19 nM | – | – | – | – | – | – | – |
| CC[C@H](C)[C@H](NC(=O)OC)C(=O)N1CCC[C@H]1c1nc2cc(-c3ccc4cc(-c5cnc([C@H]6CCCN6C(=O)[C@@H](NC(=O)OC)[C@@H](C)OC)[nH]5)ccc4c3)ccc2[nH]1 [Compound 20] | 8160 nM | 2.3 nM | 4.1 nM | 9410 nM | 324 nM | 336 nM | – | – | – | – | – | – | – |
| CC[C@H](C)[C@H](NC(=O)OC)C(=O)N1CCC[C@@H]1c1ncc(-c2ccc3cc(-c4ccc5[nH]c([C@@H]6CCCN6C(=O)[C@@H](NC(=O)OC)[C@@H](C)OC)nc5c4)ccc3c2)[nH]1 [Compound 21] | 8160 nM | 2.2 nM | 2.9 nM | 9140 nM | 482 nM | 275 nM | – | – | – | – | – | – | – |
